In the first experiment the test system is HEK293 cells. Kind of experiment: Preliminary screening as mRNA vectors, EGFP mRNA transfection of HEK293 cells. To be noted: EGFP mRNA 50 ng per well, 96-well plates; percentage of GFP fluorescent cells relative to total number of cells (Hoechst). Format: cell-based. The protocol:
Cell line: HEK293 cells (ATCC CRL-1573™)
Medium: DMEM supplemented with 10% fetal bovine serum (Invitrogen)
Screening: cell transfection on 96-well plates
Detection (readout): percentage of the number of GFP fluorescent cells relative to the total number of cells (the total number of cells was determined using nucleus dye Hoechst). Lipofectamine2000 (Invitrogen) was used as the positive control.
Method: the experimental method was basically the same with Example 4, and the mass of EGFP mRNA (TriLink) for transfection was 50 ng per well.
In the case of `CCCCCCNc1nc(NCCN(C)C)nc(SCCCCCC)n1` [Compound D1S6N6], the “Absolute mRNA transfection efficiency in HEK293 cells” value (shortened to “Absolute mRNA transfection efficiency”) stood at 0.8%. With `CCCCCCCNc1nc(NCCN(C)C)nc(SCCCCCC)n1` [Compound D1S6N7], the “Absolute mRNA transfection efficiency” value was determined as 2.3%. As to `CCCCCCCCNc1nc(NCCN(C)C)nc(SCCCCCC)n1` [Compound D1S6N8], the “Absolute mRNA transfection efficiency” value is 3.1%. The same measure, in the same setting: the result for `CCCCCCCCCNc1nc(NCCN(C)C)nc(SCCCCCC)n1` [Compound D1S6N9] reads 1.8%. Turning to `CCCCCCCCCCCNc1nc(NCCN(C)C)nc(SCCCCCC)n1` [Compound D1S6N11], the “Absolute mRNA transfection efficiency” value is listed as 1.0%. As to `CCCCCCCCCCCCNc1nc(NCCN(C)C)nc(SCCCCCC)n1` [Compound D1S6N12], the “Absolute mRNA transfection efficiency” value is on record as 0.0%. For `CCCCCCCCCCCCCNc1nc(NCCN(C)C)nc(SCCCCCC)n1` [Compound D1S6N13], the “Absolute mRNA transfection efficiency” value is 1.8%. For the molecule `CCCCCCCCCCCCCCCNc1nc(NCCN(C)C)nc(SCCCCCC)n1` [Compound D1S6N15], the “Absolute mRNA transfection efficiency” value is on record as 3.6%. `CCCCCCCCCCCCCCCCNc1nc(NCCN(C)C)nc(SCCCCCC)n1` [Compound D1S6N16]: the “Absolute mRNA transfection efficiency” value came out at 3.3%. As to `CCCCCCCCCCCCCCCCCCNc1nc(NCCN(C)C)nc(SCCCCCC)n1` [Compound D1S6N18], the “Absolute mRNA transfection efficiency” value stood at 32.7%. As for `CCCCCCSc1nc(NCCN(C)C)nc(SCCCCCC)n1` [Compound D1S6S6], the “Absolute mRNA transfection efficiency” value is reported as 0.7%. The same measure, in the same setting: the result for `CCCCCCCSc1nc(NCCN(C)C)nc(SCCCCCC)n1` [Compound D1S6S7] reads 1.0%; that for `CCCCCCCCSc1nc(NCCN(C)C)nc(SCCCCCC)n1` [Compound D1S6S8], 0.7%.

The test system of the next experiment is HEK293 cells. Kind of experiment: Preliminary screening as DNA vectors, GFP transfection of HEK293 cells. Format: cell-based. To be noted: amino lipid/DOPE liposome with 75 ng plasmid DNA (psin-EGFP-IRES-Puro); number of GFP-expressing cells divided by total nuclei (Hoechst). In outline: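 HEK293 cells in DMEM/10% FBS transfected with 75 ng EGFP plasmid per well complexed with amino lipid/DOPE liposomes in pH 5.6 sodium acetate. Hoechst nuclear stain added 20-24 h post-transfection, then cells cultured another 20-24 h. Confocal imaging gives GFP-positive cells as % of total nuclei.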
For the molecule `CCCCCCCCCCCCCCCCCCSc1nc(NCCCCCCCCCCCCC)nc(NCCN(CC)CC)n1` [S18N13 D7], the “Absolute DNA transfection efficiency in HEK293 cells” value (“Absolute DNA transfection efficiency” below) worked out at 0.0%. Consider `CCCCCCCCCCCCCCCCCCSc1nc(NCCCCCCCCCCCCC)nc(NCCCN2CCOCC2)n1` [S18N13 D8], for which the “Absolute DNA transfection efficiency” value is listed as 0.0%. Consider `CCCCCCCCCCCCCCCCCCSc1nc(NCCCCCCCCCCCCC)nc(NCCCN2CCN(C)CC2)n1` [S18N13 D9], for which the “Absolute DNA transfection efficiency” value stood at 1.8%.

Regarding `CCCCCCCCCCCCCCCCCCSc1nc(NCCCCCCCCCCCCC)nc(NCC2CCN(C)CC2)n1` [S18N13 D10], the “Absolute DNA transfection efficiency” value was 0.9%.

Take `CCCCCCCCCCCCCCCCCCSc1nc(NCCCCCCCCCCCCCCC)nc(NCCN(C)C)n1` [S18N15 D1]: the “Absolute DNA transfection efficiency” value was determined as 0.2%. As to `CCCCCCCCCCCCCCCCCCSc1nc(NCCCCCCCCCCCCCCC)nc(NCCN2CCOCC2)n1` [S18N15 D2], the “Absolute DNA transfection efficiency” value came out at 0.0%. `CCCCCCCCCCCCCCCCCCSc1nc(NCCCCCCCCCCCCCCC)nc(NCCN2CCCC2)n1` [S18N15 D3]: the “Absolute DNA transfection efficiency” value was found to be 0.2%.

Consider `CCCCCCCCCCCCCCCCCCSc1nc(NCCCCCCCCCCCCCCC)nc(NCCN2CCCCC2)n1` [S18N15 D4], for which the “Absolute DNA transfection efficiency” value worked out at 0.2%. On to `CCCCCCCCCCCCCCCCCCSc1nc(NCCCCCCCCCCCCCCC)nc(NCCN2CCN(C)CC2)n1` [S18N15 D5], for which the “Absolute DNA transfection efficiency” value was 0.0%.

Consider `CCCCCCCCCCCCCCCCCCSc1nc(NCCCCCCCCCCCCCCC)nc(NCCCN(C)C)n1` [S18N15 D6], for which the “Absolute DNA transfection efficiency” value worked out at 0.0%. In the case of `CCCCCCCCCCCCCCCCCCSc1nc(NCCCCCCCCCCCCCCC)nc(NCCN(CC)CC)n1` [S18N15 D7], the “Absolute DNA transfection efficiency” value was 0.1%. `CCCCCCCCCCCCCCCCCCSc1nc(NCCCCCCCCCCCCCCC)nc(NCCCN2CCOCC2)n1` [S18N15 D8]: the “Absolute DNA transfection efficiency” value is listed as 0.0%. `CCCCCCCCCCCCCCCCCCSc1nc(NCCCCCCCCCCCCCCC)nc(NCCCN2CCN(C)CC2)n1` [S18N15 D9]: the “Absolute DNA transfection efficiency” value was determined as 0.1%. Consider `CCCCCCCCCCCCCCCCCCSc1nc(NCCCCCCCCCCCCCCC)nc(NCC2CCN(C)CC2)n1` [S18N15 D10], for which the “Absolute DNA transfection efficiency” value was 0.2%.

Regarding `CCCCCCCCCCCCCCCCCCSc1nc(NCCCCCCCCCCCCCCCC)nc(NCCN(C)C)n1` [S18N16 D1], the “Absolute DNA transfection efficiency” value was 0.0%.

`CCCCCCCCCCCCCCCCCCSc1nc(NCCCCCCCCCCCCCCCC)nc(NCCN2CCOCC2)n1` [S18N16 D2]: the “Absolute DNA transfection efficiency” value amounted to 0.0%. For the molecule `CCCCCCCCCCCCCCCCCCSc1nc(NCCCCCCCCCCCCCCCC)nc(NCCN2CCCC2)n1` [S18N16 D3], the “Absolute DNA transfection efficiency” value is 0.1%.

With `CCCCCCCCCCCCCCCCCCSc1nc(NCCCCCCCCCCCCCCCC)nc(NCCN2CCCCC2)n1` [S18N16 D4], the “Absolute DNA transfection efficiency” value is reported as 0.1%.

As for `CCCCCCCCCCCCCCCCCCSc1nc(NCCCCCCCCCCCCCCCC)nc(NCCN2CCN(C)CC2)n1` [S18N16 D5], the “Absolute DNA transfection efficiency” value worked out at 0.2%. For `CCCCCCCCCCCCCCCCCCSc1nc(NCCCCCCCCCCCCCCCC)nc(NCCCN(C)C)n1` [S18N16 D6], the “Absolute DNA transfection efficiency” value worked out at 0.0%. Still for that read-out and setting: the result for `CCCCCCCCCCCCCCCCCCSc1nc(NCCCCCCCCCCCCCCCC)nc(NCCN(CC)CC)n1` [S18N16 D7] reads 0.0%; that for `CCCCCCCCCCCCCCCCCCSc1nc(NCCCCCCCCCCCCCCCC)nc(NCCCN2CCOCC2)n1` [S18N16 D8], 0.0%.

As for `CCCCCCCCCCCCCCCCCCSc1nc(NCCCCCCCCCCCCCCCC)nc(NCCCN2CCN(C)CC2)n1` [S18N16 D9], the “Absolute DNA transfection efficiency” value was 0.0%. As for `CCCCCCCCCCCCCCCCCCSc1nc(NCCCCCCCCCCCCCCCC)nc(NCC2CCN(C)CC2)n1` [S18N16 D10], the “Absolute DNA transfection efficiency” value stood at 0.1%.

As to `CCCCCCCCCCCCCCCCCCNc1nc(NCCN(C)C)nc(SCCCCCCCCCCCCCCCCCC)n1` [S18N18 D1], the “Absolute DNA transfection efficiency” value was determined as 0.1%. As for `CCCCCCCCCCCCCCCCCCNc1nc(NCCN2CCOCC2)nc(SCCCCCCCCCCCCCCCCCC)n1` [S18N18 D2], the “Absolute DNA transfection efficiency” value is listed as 0.1%.

For `CCCCCCCCCCCCCCCCCCNc1nc(NCCN2CCCC2)nc(SCCCCCCCCCCCCCCCCCC)n1` [S18N18 D3], the “Absolute DNA transfection efficiency” value is given as 0.0%.

As for `CCCCCCCCCCCCCCCCCCNc1nc(NCCN2CCCCC2)nc(SCCCCCCCCCCCCCCCCCC)n1` [S18N18 D4], the “Absolute DNA transfection efficiency” value came out at 0.0%.

Take `CCCCCCCCCCCCCCCCCCNc1nc(NCCN2CCN(C)CC2)nc(SCCCCCCCCCCCCCCCCCC)n1` [S18N18 D5]: the “Absolute DNA transfection efficiency” value amounted to 0.0%. `CCCCCCCCCCCCCCCCCCNc1nc(NCCCN(C)C)nc(SCCCCCCCCCCCCCCCCCC)n1` [S18N18 D6]: the “Absolute DNA transfection efficiency” value was 0.4%. With `CCCCCCCCCCCCCCCCCCNc1nc(NCCN(CC)CC)nc(SCCCCCCCCCCCCCCCCCC)n1` [S18N18 D7], the “Absolute DNA transfection efficiency” value was determined as 0.0%. On to `CCCCCCCCCCCCCCCCCCNc1nc(NCCCN2CCOCC2)nc(SCCCCCCCCCCCCCCCCCC)n1` [S18N18 D8], for which the “Absolute DNA transfection efficiency” value was 0.0%. Regarding `CCCCCCCCCCCCCCCCCCNc1nc(NCCCN2CCN(C)CC2)nc(SCCCCCCCCCCCCCCCCCC)n1` [S18N18 D9], the “Absolute DNA transfection efficiency” value is 0.0%.

Take `CCCCCCCCCCCCCCCCCCNc1nc(NCC2CCN(C)CC2)nc(SCCCCCCCCCCCCCCCCCC)n1` [S18N18 D10]: the “Absolute DNA transfection efficiency” value came out at 0.0%. In the case of `CCCCCCCCCCCCCCCCCCSc1nc(NCCN(C)C)nc(N(CCCCCCCCCCCC)CCCCCCCCCCCC)n1` [S18^2N12 D1], the “Absolute DNA transfection efficiency” value worked out at 0.0%. `CCCCCCCCCCCCCCCCCCSc1nc(NCCN2CCOCC2)nc(N(CCCCCCCCCCCC)CCCCCCCCCCCC)n1` [S18^2N12 D2]: the “Absolute DNA transfection efficiency” value amounted to 0.0%. On the same count and under the same terms, the result for `CCCCCCCCCCCCCCCCCCSc1nc(NCCN2CCCC2)nc(N(CCCCCCCCCCCC)CCCCCCCCCCCC)n1` [S18^2N12 D3] reads 0.2%. On to `CCCCCCCCCCCCCCCCCCSc1nc(NCCN2CCCCC2)nc(N(CCCCCCCCCCCC)CCCCCCCCCCCC)n1` [S18^2N12 D4], for which the “Absolute DNA transfection efficiency” value amounted to 0.0%. For `CCCCCCCCCCCCCCCCCCSc1nc(NCCN2CCN(C)CC2)nc(N(CCCCCCCCCCCC)CCCCCCCCCCCC)n1` [S18^2N12 D5], the “Absolute DNA transfection efficiency” value turned out to be 0.0%.

Regarding `CCCCCCCCCCCCCCCCCCSc1nc(NCCCN(C)C)nc(N(CCCCCCCCCCCC)CCCCCCCCCCCC)n1` [S18^2N12 D6], the “Absolute DNA transfection efficiency” value came to 1.6%. For `CCCCCCCCCCCCCCCCCCSc1nc(NCCN(CC)CC)nc(N(CCCCCCCCCCCC)CCCCCCCCCCCC)n1` [S18^2N12 D7], the “Absolute DNA transfection efficiency” value came out at 0.0%. In the case of `CCCCCCCCCCCCCCCCCCSc1nc(NCCCN2CCOCC2)nc(N(CCCCCCCCCCCC)CCCCCCCCCCCC)n1` [S18^2N12 D8], the “Absolute DNA transfection efficiency” value came out at 0.0%.

For the molecule `CCCCCCCCCCCCCCCCCCSc1nc(NCCCN2CCN(C)CC2)nc(N(CCCCCCCCCCCC)CCCCCCCCCCCC)n1` [S18^2N12 D9], the “Absolute DNA transfection efficiency” value came out at 0.0%. Take `CCCCCCCCCCCCCCCCCCSc1nc(NCC2CCN(C)CC2)nc(N(CCCCCCCCCCCC)CCCCCCCCCCCC)n1` [S18^2N12 D10]: the “Absolute DNA transfection efficiency” value is 0.4%.
